Results taken from US8598130B2, “Insecticidal combinations” (priority 2008, dated 2013).

Test system: mites
Test: Field trial of mite control on field beans variety Paloma, foliar spray
Assay type: in vivo
Conditions: for Observed, % control of mites 6DAA3: 6 days after application 3, rate g/ha: abamectin 6.7, cyflumetofen 150, combination 6.7 & 150, percentage compared to non-treated control; for Observed, % control of mites 14DAA3: fourteen days after application 3, rate g/ha: abamectin 6.7, cyflumetofen 150, combination 6.7 & 150, percentage compared to non-treated control; for Observed, % control of mites 6DAA1: six days after application 1, rate g/ha: abamectin 6.7, cyflumetofen 150, combination 6.7 & 150, percentage compared to non-treated control; for Observed, % control of mites 6DAA2: six days after application 2, rate g/ha: abamectin 6.7, cyflumetofen 150, combination 6.7 & 150, percentage compared to non-treated control
From the text: The action to be expected E for a given active ingredient combination obeys the so-called COLBY formula and can be calculated as follows (COLBY, S. R. “Calculating synergistic and antagonistic responses of herbicide combination”. Weeds, Vol. 15, pages 20-22; 1967): • ppm=milligrams of active ingredient (=a.i.) per liter of spray mixture • X=% action by active ingredient A) using p ppm of active ingredient • Y=% action by active ingredient B) using q ppm of active ingredient.
According to COLBY, the expected (additive) action of active ingredients A)+B) using p+q ppm of active ingredient is
If the action actually observed (O is greater than the expected action (E), then the action of the combination is super-additive, i.e. there is a synergistic effect.
Trials are conducted on field beans variety Paloma to determine the effects of the present combination.
The trials are carried out on a plot is 1 m^2, with three replicates for each trial and spray volume ranges from 1500-1600 l/ha.
The first application of the pesticide formulation (whether solo or combination) is at pest threshold as foliar spray (at 35 days after planting). Thereafter the second and third foliar applications are at 42 and 49 days after planting.
The assessment of the mite control is carried out on the basis of number of mites on five leaves for each plot at the times indicated in the table (i.e., six days after application 1 (6DAA1), six days after application 2 (6DAA2), 6 days after application 3 (6DAA3), and fourteen days after application 3 (14DAA3)). The values are given as a percentage compared to a non-treated control.
The Table below also provides the expected % control for the combination based on the Colby formula.

| Compound | Observed, % control of mites 6DAA3 [%] | Observed, % control of mites 14DAA3 [%] | Observed, % control of mites 6DAA1 [%] | Observed, % control of mites 6DAA2 [%] |
| --- | --- | --- | --- | --- |
| COCCOC(=O)C(C#N)(C(=O)c1ccccc1C(F)(F)F)c1ccc(C(C)(C)C)cc1 (centres unmarked) [cyflumetofen] | 26 | 32 | 79 | 64 |
| abamectin | 59 | 66 | 92 | 32 |
